Results published in patent publication US10308644B2, “Heterocyclic compounds as immunomodulators” (Incyte Corporation, priority 2016, dated 2019).

Target: PD-1/PD-L1 (Homo sapiens (Human), UniProt Q9NZQ7)
Assay: PD-1/PD-L1 Homogeneous Time-Resolved Fluorescence (HTRF) Binding Assay
Details: recombinant human PD-1 (3 nM) and PD-L1 (10 nM), 25° C., PBS pH 7.4
Outline: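 Fc-tagged human PD-1 (25-167, 3 nM) and His-tagged PD-L1 (19-238, 10 nM) preincubated with inhibitor 40 min in PBS pH 7.4, 0.05% Tween-20, 0.1% BSA, 1% DMSO, 25 °C. Binding detected by HTRF (Eu anti-IgG/APC anti-His, 665/620 nm) after 60 min; IC50 from percent control activity.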

Chain of PD-1/PD-L1 (Q9NZQ7 19-238): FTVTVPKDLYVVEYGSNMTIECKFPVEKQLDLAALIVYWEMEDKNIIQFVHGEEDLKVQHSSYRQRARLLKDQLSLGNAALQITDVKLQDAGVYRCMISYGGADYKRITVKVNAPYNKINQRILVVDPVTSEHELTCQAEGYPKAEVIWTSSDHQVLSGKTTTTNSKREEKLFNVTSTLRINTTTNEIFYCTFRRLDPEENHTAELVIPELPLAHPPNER

IC50, ≤ 0.01 µM:
Cc1c(-c2nc3cc(CN4CC[C@@H](C(=O)O)C4)cc(C#N)c3o2)cccc1-c1cccc(Nc2nccc3cc(CN4CC[C@H](O)C4)cnc23)c1Cl [Example 30, (R)-1-((2-(2′-chloro-3′-(3-(((S)-3-hydroxypyrrolidin-1-yl)methyl)-1,7-naphthyridin-8-ylamino)-2-methylbiphenyl-3-yl)-7-cyanobenzo[d]oxazol-5-yl)methyl)pyrrolidine-3-carboxylic acid]
Cc1c(Nc2nccc3cc(CN4CC[C@@](C)(C(=O)O)C4)cnc23)cccc1-c1cccc(-c2nc3cc(CN4CC[C@@H](O)C4)cc(C#N)c3o2)c1C [Example 216, (R)-1-((8-(3′-(7-cyano-5-(((R)-3-hydroxypyrrolidin-1-yl)methyl)benzo [d]oxazol-2-yl)-2,2′-dimethylbiphenyl-3-ylamino)-1,7-naphthyridin-3-yl)methyl)-3-methylpyrrolidine-3-carboxylic acid]
Cc1c(Nc2nccc3cc(CN[C@H](C)CO)cnc23)cccc1-c1cccc(-c2nc3cc(CN4CC[C@@](C)(C(=O)O)C4)cc(C#N)c3o2)c1C [Example 196, (R)-1-((7-cyano-2-(3′-(3-(((R)-1-hydroxypropan-2-ylamino)methyl)-1,7-naphthyridin-8-ylamino)-2,2′-dimethylbiphenyl-3-yl)benzo[d]oxazol-5-yl)methyl)-3-methylpyrrolidine-3-carboxylic acid]
Cc1c(-c2nc3cc(CN4CC[C@@H](C(=O)O)C4)cc(C#N)c3o2)cccc1-c1cccc(-n2cc3c(n2)CN(C(C)C)C3)c1Cl [Example 56, (R)-1-((2-(2′-chloro-3′-(5-isopropyl-5,6-dihydropyrrolo[3,4-c]pyrazol-2(4H)-yl)-2-methylbiphenyl-3-yl)-7-cyanobenzo[d]oxazol-5-yl)methyl)pyrrolidine-3-carboxylic acid]
Cc1c(-c2nc3c(o2)CN(C(=O)CN(C)C)C3)cccc1-c1cccc(-c2nc3cc(CN4CC[C@@](C)(C(=O)O)C4)cc(C#N)c3o2)c1C [Example 245, (R)-1-((7-cyano-2-(3′-(5-(dimethylglycyl)-5,6-dihydro-4H-pyrrolo[3,4-d]oxazol-2-yl)-2,2′-dimethyl[1,1′-biphenyl]-3-yl)benzo[d]oxazol-5-yl)methyl)-3-methylpyrrolidine-3-carboxylic acid]
Cc1c(Nc2ncnc3cc(CNC[C@H](C)O)cnc23)cccc1-c1cccc(-c2nc3cc(CN4CC[C@@](C)(C(=O)O)C4)cc(C#N)c3o2)c1C [Example 208, (R)-1-((7-cyano-2-(3′-(7-(((S)-2-hydroxypropylamino)methyl)pyrido[3,2-d]pyrimidin-4-ylamino)-2,2′-dimethylbiphenyl-3-yl)benzo[d]oxazol-5-yl)methyl)-3-methylpyrrolidine-3-carboxylic acid]
Cc1c(-c2nc3cc(CN4CC[C@@H](C(=O)O)C4)cc(C#N)c3o2)cccc1-c1cccc(-c2nc3c(s2)CNCC3)c1C [Example 72, (R)-1-((7-cyano-2-(2,2′-dimethyl-3′-(4,5,6,7-tetrahydrothiazolo[5,4-c]pyridin-2-yl)biphenyl-3-yl)benzo[d]oxazol-5-yl)methyl)pyrrolidine-3-carboxylic acid]
Cc1c(-c2nc3cc(CN4CC[C@@](C)(C(=O)O)C4)cc(C#N)c3o2)cccc1-c1cccc(-c2nc3c(s2)CN(C(=O)CN(C)[C@H](C)CO)C3)c1C [Example 225, (R)-1-((7-cyano-2-(3′-(5-(2-(((R)-1-hydroxypropan-2-yl)(methyl)amino)acetyl)-5,6-dihydro-4H-pyrrolo[3,4-d]thiazol-2-yl)-2,2′-dimethylbiphenyl-3-yl)benzo[d]oxazol-5-yl)methyl)-3-methylpyrrolidine-3-carboxylic acid]
Cc1c(-c2nc3cc(CN4CC[C@@H](C(=O)O)C4)cc(C#N)c3o2)cccc1-c1cccc(-c2nc3c(s2)CN(C(=O)CN2CC[C@](C)(O)C2)C3)c1C [Example 115, (R)-1-((7-cyano-2-(3′-(5-(2-((S)-3-hydroxy-3-methylpyrrolidin-1-yl)acetyl)-5,6-dihydro-4H-pyrrolo[3,4-d]thiazol-2-yl)-2,2′-dimethylbiphenyl-3-yl)benzo[d]oxazol-5-yl)methyl)pyrrolidine-3-carboxylic acid]
Cc1c(-c2nc3cc(CN4CC[C@@H](C(=O)O)C4)cc(C#N)c3o2)cccc1-c1cccc(-c2nc3c(s2)CN(C(=O)CN2CC[C@@](C)(O)C2)C3)c1C [Example 116, (R)-1-((7-cyano-2-(3′-(5-(2-((R)-3-hydroxy-3-methylpyrrolidin-1-yl)acetyl)-5,6-dihydro-4H-pyrrolo[3,4-d]thiazol-2-yl)-2,2′-dimethylbiphenyl-3-yl)benzo[d]oxazol-5-yl)methyl)pyrrolidine-3-carboxylic acid]
Cc1c(Nc2nccc3cc(CN[C@H](C)CO)cnc23)cccc1-c1cccc(-c2nc3cc(CN4CCC(C(=O)O)CC4)cc(C#N)c3o2)c1C [Example 202, (R)-1-((7-cyano-2-(3′-(3-((1-hydroxypropan-2-ylamino)methyl)-1,7-naphthyridin-8-ylamino)-2,2′-dimethylbiphenyl-3-yl)benzo[d]oxazol-5-yl)methyl)piperidine-4-carboxylic acid]
Cc1c(-c2nc3cc(CN4CC[C@H](C(=O)O)C4)cc(C#N)c3o2)cccc1-c1cccc(Nc2nccc3cc(CN4CC[C@@H](O)C4)cnc23)c1Cl [Example 83, (S)-1-((2-(2′-chloro-3′-(3-(((R)-3-hydroxypyrrolidin-1-yl)methyl)-1,7-naphthyridin-8-ylamino)-2-methylbiphenyl-3-yl)-7-cyanobenzo[d]oxazol-5-yl)methyl)pyrrolidine-3-carboxylic acid]
Cc1c(-c2nc3c(o2)CNCC3)cccc1-c1cccc(-c2nc3cc(CN4CC[C@@H](C(=O)O)C4)cc(Cl)c3o2)c1C [Example 78, (R)-1-((7-chloro-2-(2,2′-dimethyl-3′-(4,5,6,7-tetrahydrooxazolo[5,4-c]pyridin-2-yl)-[1,1′-biphenyl]-3-yl)benzo[d]oxazol-5-yl)methyl)pyrrolidine-3-carboxylic acid]
CCN(C)CC(=O)N1Cc2nc(-c3cccc(-c4cccc(-c5nc6cc(CN7CC[C@@](C)(C(=O)O)C7)cc(C#N)c6o5)c4C)c3C)oc2C1 [Example 243, (R)-1-((7-cyano-2-(3′-(5-(N-ethyl-N-methylglycyl)-5,6-dihydro-4H-pyrrolo[3,4-d]oxazol-2-yl)-2,2′-dimethyl-[1,1′-biphenyl]-3-yl)benzo[d]oxazol-5-yl)methyl)-3-methylpyrrolidine-3-carboxylic acid]
Cc1c(-c2nc3c(o2)CN(C(=O)[C@@H]2CCCN2C)C3)cccc1-c1cccc(-c2nc3cc(CN4CC[C@@H](C(=O)O)C4)cc(C#N)c3o2)c1C [Example 124, (R)-1-((7-cyano-2-(2,2′-dimethyl-3′-(5-(methyl-L-prolyl)-5,6-dihydro-4H-pyrrolo[3,4-d]oxazol-2-yl)-[1,1′-biphenyl]-3-yl)benzo[d]oxazol-5-yl)methyl)pyrrolidine-3-carboxylic acid]
CCN1CCc2c(nc(C(=O)Nc3cccc(-c4cccc(-c5nc6cc(CN7CC[C@@](C)(C(=O)O)C7)cc(C#N)c6o5)c4C)c3Cl)n2C)C1 [Example 95, (R)-1-((2-(2′-chloro-3′-(5-ethyl-1-methyl-4,5,6,7-tetrahydro-1H-imidazo[4,5-c]pyridine-2-carboxamido)-2-methylbiphenyl-3-yl)-7-cyanobenzo[d]oxazol-5-yl)methyl)-3-methylpyrrolidine-3-carboxylic acid]
Cc1c(-c2nc3c(o2)CN(C(=O)CN2CC(O)C2)C3)cccc1-c1cccc(-c2nc3cc(CN4CC[C@@H](C(=O)O)C4)cc(C#N)c3o2)c1C [Example 127, (R)-1-((7-cyano-2-(3′-(5-(2-(3-hydroxyazetidin-1-yl)acetyl)-5,6-dihydro-4H-pyrrolo[3,4-d]oxazol-2-yl)-2,2′-dimethyl-[1,1′-biphenyl]-3-yl)benzo[d]oxazol-5-yl)methyl)pyrrolidine-3-carboxylic acid]
Cc1c(-c2nc3cc(CN4CC[C@@H](C(=O)O)C4)cc(Cl)c3o2)cccc1-c1cccc(-c2nc3c(s2)CN(CCO)CC3)c1C [Example 61, (R)-1-((7-chloro-2-(3′-(5-(2-hydroxyethyl)-4,5,6,7-tetrahydrothiazolo[5,4-c]pyridin-2-yl)-2,2′-dimethyl-[1,1′-biphenyl]-3-yl)benzo[d]oxazol-5-yl)methyl)pyrrolidine-3-carboxylic acid]
Cc1c(Nc2nccc3cc(CN4CC[C@@H](O)C4)cnc23)cccc1-c1cccc(-c2nc3cc(CN4CC5CC4CC5C(=O)O)cc(C#N)c3o2)c1C (stereo partly drawn) [Example 176, 2-((7-cyano-2-(3′-(3-(((R)-3-hydroxypyrrolidin-1-yl)methyl)-1,7-naphthyridin-8-ylamino)-2,2′-dimethylbiphenyl-3-yl)benzo[d]oxazol-5-yl)methyl)-2-aza bicyclo[2.2.1]heptane-5-carboxylic acid]
Cc1c(Nc2nccc3cc(CN[C@@H](C)CO)cnc23)cccc1-c1cccc(-c2nc3cc(CN4CC[C@@H](C(=O)O)C4)cc(C#N)c3o2)c1C [Example 257, (R)-1-((7-cyano-2-(3′-(3-(((S)-1-hydroxypropan-2-ylamino)methyl)-1,7-naphthyridin-8-ylamino)-2,2′-dimethylbiphenyl-3-yl)benzo[d]oxazol-5-yl)methyl)pyrrolidine-3-carboxylic acid]
CNC(=O)[C@@H]1CCN(Cc2cc(C#N)c3oc(-c4cccc(-c5cccc(-c6nc7c(s6)CN(C(C)C)CC7)c5C)c4C)nc3c2)C1 [Example 117, (R)-1-((7-cyano-2-(3′-(5-isopropyl-4,5,6,7-tetrahydrothiazolo[5,4-c]pyridin-2-yl)-2,2′-dimethyl-[1,1′-biphenyl]-3-yl)benzo[d]oxazol-5-yl)methyl)-N-methylpyrrolidine-3-carboxamide]
